Literature values in patent publication US20230233480A1, “TRANSDERMAL THERAPEUTIC SYSTEM FOR THE TRANSDERMAL ADMINISTRATION OF FINGOLIMOD” (LTS LOHMANN THERAPIE-SYSTEME AG, priority 2019, published 2023).

ratio of Cmax fingolimod phosphate/Cmax fingolimod (humans at steady state after administration of 0.5 mg/day): about 0.5
accumulation of blood levels from first dose to steady state (humans, once-daily dosing): ~11 fold
Compound: CCCCCCCCc1ccc(CCC(N)(CO)CO)cc1 [fingolimod, 2-amino-2-[2-(4-octylphenyl)ethyl]propane-1,3-diol]
